According to patent US8466191B2, “Pyrroline derivatives against cell releasing tumor necrosis factor, preparation methods and uses thereof” (priority 2006, dated 2013):

tested on: release of TNFα in peripheral blood mononuclear cells (PBMCs) stimulated by lipopolysaccharide (LPS); assay: Inhibition of the release of TNFα in peripheral blood mononuclear cells (PBMCs) stimulated by lipopolysaccharide (LPS), ELISA; format: cell-based, human; details: 3 μM compound; PBMCs 1×10^6 cells/mL, 1 hour preincubation, LPS 0.1 μg/mL, 20 hours incubation, TNFα in supernatant by ELISA
Protocol: Pharmacological Research: Effects on the release of TNFα in peripheral blood mononuclear cells (PBMCs) stimulated by lipopolysaccharide (LPS) by compounds of the invention
Release of cytokine TNFα by PBMCs in the peripheral blood stimulated by lipid polysaccharide (LPS) was studied in vitro.
PBMCs collected from blood of at least three volunteers were pretreated with heparin by a gradient separation method, and washed three times with a 1640 culture medium (10% calf serum, 2 mM L-glutamine, […] mercaptoethanol, 50 μg/mL streptomycin, and 50 U/mL penicillin). The obtained PBMCs were then placed into a 24-well cell culture plate and the concentration was adjusted to 1×10^6 cells/mL with 1640 culture medium. The compounds to be tested were dissolved in dimethylsulfoxide to obtain a solution having a required concentration. The solution was added to the above-mentioned cell culture medium and cultured in an incubator (5% CO2, 90% humidity) for 1 hour. Then, LPS (Sigma) was added until the concentration reached 0.1 μg/mL (except for the control).
After 20 hours incubation, the content of TNFα in the supernatant of the PBMC culture medium was assayed using an ELISA kit (America Genzyme Co) by a standard method. The TNFα inhibition rate was calculated using values measured in the control well (not treated) and the test wells (treated with the compound to be tested). The concentration of compounds giving a 50% TNFα inhibition (IC50 value) was calculated using nonlinear regression analysis. Each concentration was determined twice and an average value was reported.

SMILES | Inhibition Rate (%)
COC(=O)CC(c1ccc(OC)c(OC)c1)N1C(=O)c2cscc2C1=O (centres unmarked) [Example 1, methyl 3-(3,4-dimethoxy-phenyl)-3-(4,6-dioxo-4H-thiophene[3,4-c]pyrrole-5(6H)-yl)propionate] | 87.6%
COC(=O)CCN1C(=O)c2cscc2C1=O [Example 15, methyl 3-(4,6-Dioxo-4H-thiophene[3,4-c]pyrrole-5(6H)-yl)propionate] | 40.9%
COC(=O)CCCN1C(=O)c2cscc2C1=O [Example 16, methyl 4-(4,6-Dioxo-4H-thiophene[3,4-c]pyrrole-5(6H)-yl)butyrate] | 38.4%
COC(=O)[C@H](c1ccccc1)N1C(=O)c2cscc2C1=O [Example 17, L-methyl 2-(4,6-dioxo-4H-thiophene[3,4-c]pyrrole-5(6H)-yl)-2-phenylacetate] | 83.5%
COC(=O)[C@@H](c1ccccc1)N1C(=O)c2cscc2C1=O [Example 18, D-methyl 2-(4,6-dioxo-4H-thiophene[3,4-c]pyrrole-5(6H)-yl)-2-phenylacetate] | 84.1%
COC(=O)CC(c1ccc(OC)c(OC)c1)N1C(=O)c2csc(N)c2C1=O (centres unmarked) [Example 23, methyl 3-(3,4-Dimethoxy-phenyl)-3-(1-amino-4,6-dioxo-4H-thiophene[3,4-c]pyrrole-5(6H)-yl)propionate] | 95.4%
CCOc1ccc(C(CC(=O)OC)N2C(=O)c3csc(N)c3C2=O)cc1OC (centres unmarked) [Example 26, methyl 3-(3-Methoxy-4-ethoxy-phenyl)-3-(1-amino-4,6-dioxo-4H-thiophene[3,4-c]pyrrole-5(6H)-yl)propionate] | 93.6%
COC(=O)[C@H](c1ccccc1)N1C(=O)c2csc(N)c2C1=O [Example 29, L-methyl 2-(1-amino-4,6-dioxo-4H-thiophene[3,4-c]pyrrole-5(6H)-yl)-2-phenylacetate] | 87.6%
COC(=O)[C@@H](c1ccccc1)N1C(=O)c2csc(N)c2C1=O [Example 30, D-methyl 2-(1-amino-4,6-dioxo-4H-thiophene[3,4-c]pyrrole-5(6H)-yl)-2-phenylacetate] | 91.4%
COC(=O)CC(c1ccc(OC)c(OC2CCCC2)c1)N1C(=O)c2csc(NC(C)=O)c2C1=O (centres unmarked) [Example 31, methyl 3-(3-Cyclopentyloxy-4-methoxy-phenyl)-3-(1-acetylamino-4,6-dioxo-4H-thiophene[3,4-c]pyrrole-5(6H)-yl)propionate] | 93.6%
CCOc1ccc(C(CC#N)N2C(=O)c3csc(N)c3C2=O)cc1OC (centres unmarked) [Example 38, 3-(3-Methoxy-4-ethoxy-phenyl)-3-(1-amino-4,6-dioxo-4H-thiophene[3,4-c]pyrrole-5(6H)-yl)propionitrile] | 94.9%
COc1ccc(C(CC#N)N2C(=O)c3csc(N)c3C2=O)cc1OC (centres unmarked) [Example 39, 3-(3,4-dimethoxy-phenyl)-3-(1-amino-4,6-dioxo-4H-thiophene[3,4-c]pyrrole-5(6H)-yl)propionitrile] | 93.4%
COc1cc(C(CC#N)N2C(=O)c3csc(N)c3C2=O)ccc1OCc1ccccc1 (centres unmarked) [Example 40, 3-(3-Methoxy-4-benzyloxyphenyl)-3-(1-amino-4,6-dioxo-4H-thiophene[3,4-c]pyrrole-5(6H)-yl)propionitrile] | 83.6%
CCOc1cc(C(CC#N)N2C(=O)c3csc(N)c3C2=O)ccc1OC (centres unmarked) [Example 41, 3-(3-Ethoxy-4-methoxy-phenyl)-3-(1-amino-4,6-dioxo-4H-thiophene[3,4-c]pyrrole-5(6H)-yl)propionitrile] | 91.2%
COc1ccc(C(CC#N)N2C(=O)c3csc(N)c3C2=O)cc1OC1CCCC1 (centres unmarked) [Example 42, 3-(3-Cyclopentyloxy-4-methoxy-phenyl)-3-(1-amino-4,6-dioxo-4H-thiophene[3,4-c]pyrrole-5(6H)-yl)propionitrile] | 94.8%
COc1cc(C(CCN(C)C)N2C(=O)c3cscc3C2=O)ccc1OCc1ccccc1 (centres unmarked) [Example 54, 5-(1-(3-Methoxy-4-benzyloxyphenyl)-3-dimethylamino-propyl)-5H-thiophene[3,4-c]pyrrole-4,6-dione] | 41.4%
CCN(CC)CCC(c1ccc(OCc2ccccc2)c(OC)c1)N1C(=O)c2cscc2C1=O (centres unmarked) [Example 55, 5-(1-(3-Methoxy-4-benzyloxyphenyl)-3-diethylamino-propyl)-5H-thiophene[3,4-c]pyrrole-4,6-dione] | 50.2%
CCOc1ccc(C(CC(=O)O)N2C(=O)c3cscc3C2=O)cc1OC (centres unmarked) [Example 58, 3-(3-Methoxy-4-ethoxy-phenyl)-3-(4,6-dioxo-4H-thiophene[3,4-c]pyrrole-5(6H)-yl)propionic acid] | 20.7%
CCOc1ccc(C(CC(=O)NO)N2C(=O)c3cscc3C2=O)cc1OC (centres unmarked) [Example 59, 3-(3-Methoxy-4-ethoxy-phenyl)-3-(4,6-dioxo-4H-thiophene[3,4-c]pyrrole-5(6H)-yl)-N-hydroxy propionamide] | 80%

same assay, conditions: Homo sapiens, PBMC; 3 μM compound; PBMCs 1×10^6 cells/mL, 1 hour preincubation, LPS 0.1 μg/mL, 20 hours incubation, TNFα in supernatant by ELISA; read-out: Inhibition Rate (%)

SMILES | inhibition at 3 µM
O=C1CCC(N2C(=O)c3ccccc3C2=O)C(=O)N1 (centres unmarked) [Thalidomide, reference compound] | 22%
